Molecular target: T1, NK1 receptor (Homo sapiens, UniProt P25103)
T1 construct: expressed in transfected cells
Experiment: NK1-Red ß-ARRNomad biosensor cell line inhibition assay (co-treatment with Substance P)
Type: cell-based
Settings: co-treated with Substance P 100 nM, 24 h, BD PATHWAY 855; read-out: Ic50 (inhibition of NK1 receptor, biosensor change of localization)
Description: The Ic50 for L733,060 was Approx. 1.84×10^−7M after a treatment of 24 h with the agonist.

T1 sequence (P25103 whole entry, species assumed): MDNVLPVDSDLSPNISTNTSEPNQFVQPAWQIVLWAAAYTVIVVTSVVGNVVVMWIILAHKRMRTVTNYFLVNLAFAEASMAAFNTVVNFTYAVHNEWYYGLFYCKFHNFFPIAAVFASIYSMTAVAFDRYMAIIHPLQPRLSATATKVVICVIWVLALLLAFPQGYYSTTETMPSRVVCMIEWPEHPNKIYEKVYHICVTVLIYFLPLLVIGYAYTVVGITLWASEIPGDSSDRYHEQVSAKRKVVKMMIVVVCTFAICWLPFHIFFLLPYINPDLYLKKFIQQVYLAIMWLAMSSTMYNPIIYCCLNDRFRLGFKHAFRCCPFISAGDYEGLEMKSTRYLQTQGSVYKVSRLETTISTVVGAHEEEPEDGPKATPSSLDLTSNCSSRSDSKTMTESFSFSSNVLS

For `FC(F)(F)c1cc(CO[C@H]2CCCN[C@H]2c2ccccc2)cc(C(F)(F)F)c1` [L733,060], the IC50 was ~184 nM.
